Where a name gives a salt, the structure may show the parent alone.
Biological target: T1, SCD (rat liver microsome) (Rattus norvegicus, UniProt P07308)
T1 construct: an enzyme reaction using rat liver microsome (20 μg) was performed for 15 min; from tissue; host or cells: rat liver microsome fraction
T1 sequence (P07308 1-358): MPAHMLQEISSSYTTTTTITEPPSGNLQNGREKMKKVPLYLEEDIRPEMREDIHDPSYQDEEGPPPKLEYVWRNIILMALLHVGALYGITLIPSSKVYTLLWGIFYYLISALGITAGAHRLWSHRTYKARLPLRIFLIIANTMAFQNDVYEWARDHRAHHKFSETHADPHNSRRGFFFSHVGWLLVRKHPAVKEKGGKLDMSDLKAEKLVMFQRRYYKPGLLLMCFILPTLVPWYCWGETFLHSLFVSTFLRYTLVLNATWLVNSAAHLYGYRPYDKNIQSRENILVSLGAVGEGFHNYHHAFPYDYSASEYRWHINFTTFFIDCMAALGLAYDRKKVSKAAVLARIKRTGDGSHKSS
Experiment: Measurement of SCD inhibitory activity using microsome (TLC detection system)
Type: biochemical
Details: test compound 10 μM, rat liver microsome (20 μg), [14C] stearoyl-CoA, 15 min; for inhibition at 10 µM: read-out: SCD activity inhibitory rate (%)
Procedure: “Test Method” Measurement of SCD Inhibitory Activity Using Microsome (TLC Detection System)
A test compound (10 mM) diluted with DMSO in advance was secondarily diluted to 3/1000 with 3× buffer (300 mmol/L NaH2PO4 [pH 7.4], 450 mM KCl, 30 mM NaF, 9 mM MgCl2, 4.5 mM glutathione [reduced form], 0.3% BSA [fatty acid free, SIGMA]). The test compound (10 μL) diluted with the assay buffer was dispensed to a PP 96-deep well block, and a microsome fraction (10 μL) diluted with a microsome buffer was added thereto. The enzyme reaction was started by the addition of 10 μL of [^14C] stearoyl-CoA (American Radiolabeled Chemicals [ARC], Inc.) diluted to 10 μCi/mL with 9 mmol/L NADH. For evaluation of the compound, an enzyme reaction using rat liver microsome (20 μg) was performed for 15 min. The reaction was quenched by the addition of 10 μL of 2.5N NaOH, a plate seal was applied, and the reaction mixture was incubated overnight in a dry heater set to 65° C. to allow saponification. Solvent extraction of fatty acid was based on the Bligh&Dyer method (1). Formic acid:methanol:chloroform (1:6:3) (200 μL) was added, the state of single layer was maintained, the mixture was sufficiently stirred, and pure water (120 μL) was added to allow separation into two layers. The lower chloroform layer (10 μL) was spotted on reversed-phase TLC plate (RP-18, 1154230001, Merck Japan, Ltd.) and developed with acetonitrile:pure water:acetic acid (95:4.5:0.5). The TLC plate was dried and transferred onto an Imaging Plate (Fuji Photo Film Co., Ltd.) for not less than 5 hr. For detection, BAS-5000 (Fuji Photo Film Co., Ltd) was used and the obtained spot images were converted to numerical values using Multi Gauge Ver2.3 (Fuji Photo Film Co., Ltd), based on which the SCD activity inhibitory rate (%) was determined.

Row | inhibition at 10 µM [%] | SCD activity inhibitory rate (%) | Compound
1 | 85 | – | O=C(Nc1ccc(Cn2cccn2)cc1)N1CCCC(COc2cc(Cl)ccc2Cl)C1 (centres unmarked) [Example 167, 3-[(2,5-dichlorophenoxy)methyl]-N-[4-(1H-pyrazol-1-ylmethyl)phenyl]piperidine-1-carboxamide]
2 | 88 | – | O=C(Nc1cnn(CCO)c1)c1cc(COc2ccccc2Cl)ccn1 [Example 169, 4-[(2-chlorophenoxy)methyl]-N-[1-(2-hydroxyethyl)-1H-pyrazol-4-yl]pyridine-2-carboxamide]
3 | 99 | – | O=C(Nc1cnn(Cc2ccc(F)cc2)c1)c1cccc(CNc2ccccc2Cl)c1 [Example 201, 3-{[(2-chlorophenyl)amino]methyl}-N-[1-(4-fluorobenzyl)-1H-pyrazol-4-yl]benzamide]
4 | – | 92 | CCc1cccc(NC(=O)N2CCOC(COc3cc(F)ccc3Cl)C2)n1 (centres unmarked) [Example 202, 2-[(2-chloro-5-fluorophenoxy)methyl]-N-(6-ethylpyridin-2-yl) morpholine-4-carboxamide]
5 | 97 | – | O=C(Nc1ccc(CO)cn1)N1CCOC(COc2cc(F)ccc2Cl)C1 (centres unmarked) [Example 212, 2-[(2-chloro-5-fluorophenoxy)methyl]-N-[5-(hydroxymethyl)pyridin-2-yl]morpholine-4-carboxamide]
6 | 93 | – | CN(Cc1cccc(C(=O)Nc2cnn(Cc3ccc(F)cc3)c2)c1)c1ccccc1Cl [Example 225, 3-{[(2-chlorophenyl)(methyl)amino]methyl}-N-[1-(4-fluorobenzyl)-1H-pyrazol-4-yl]benzamide]

The remaining lines, values behind:

Row | Compound | inhibition at 10 µM [%] | SCD activity inhibitory rate (%)
7 | Cc1cc(C)nc(NC(=O)N2CCOC(COc3ccccc3F)C2)c1 (centres unmarked) [Example 59, N-(4,6-dimethylpyridin-2-yl)-2-[(2-fluorophenoxy)methyl]morpholine-4-carboxamide trifluoroacetate] | 88 | –
8 | NC(=O)c1ccsc1NC(=O)c1cccc(COc2cc(Cl)ccc2Cl)c1 [Example 93, 2-({3-[(2,5-dichlorophenoxy)methyl]benzoyl}amino)thiophene-3-carboxamide] | 83 | –
9 | O=C(Nc1cnn(Cc2ccc(F)cc2)c1)c1ccc(Cn2cnc3ccccc32)cc1 [Example 99, 4-(1H-benzimidazol-1-ylmethyl)-N-[1-(4-fluorobenzyl)-1H-pyrazol-4-yl]benzamide] | 93 | –
10 | Cc1cc(C)nc(NC(=O)c2ccc(Cn3cnc4ccccc43)cc2)c1 [Example 108, 4-(1H-benzimidazol-1-ylmethyl)-N-(4,6-dimethylpyridin-2-yl)benzamide] | 97 | –
11 | Cc1cc(C)nc(NC(=O)c2cc(COc3cc(Cl)ccc3Cl)ccn2)c1 [Example 113, 4-[(2,5-dichlorophenoxy)methyl]-N-(4,6-dimethylpyridin-2-yl)pyridine-2-carboxamide] | 86 | –
12 | O=C(Nc1ccc(Cn2cccn2)cc1)c1ccnc(COc2cc(Cl)ccc2Cl)c1 [Example 116, 2-[(2,5-dichlorophenoxy)methyl]-N-[4-(1H-pyrazol-1-ylmethyl)phenyl]isonicotinamide] | 100 | –
13 | Cc1nn(Cc2ccccc2)c2sc(C(=O)Nc3ccc(Cn4cccn4)cc3)cc12 [Example 118, 1-benzyl-3-methyl-N-[4-(1H-pyrazol-1-ylmethyl)phenyl]-1H-thieno[2,3-c]pyrazole-5-carboxamide] | 86 | –
14 | O=C(Nc1cnn(Cc2ccc(F)cc2)c1)c1cccc(COc2ccccc2)c1 [Example 149, N-[1-(4-fluorobenzyl)-1H-pyrazol-4-yl]-3-(phenoxymethyl)benzamide] | 97 | –
